# Data published in patent US7816074B2, “α4 β2 δGABA-A receptors as a strategy for PMS and alcoholism” (priority 2003, dated 2010).
# Experiments:
# Format in all cases: in vivo, rat
# δ subunit mRNA = experiment: Semi-quantitative RT-PCR of δ subunit in hippocampus; settings: after progesterone withdrawal
# Method: (§1) Crystalline progesterone was administered via a silicone capsule ( 1/16″ i.d., ⅛″ o.d.) implanted subcutaneously (10 mm length/100 gm body weight) in female rats (110-120 grams, in vitro studies; 220-250 grams, behavioral studies) for 21 days. Control rats were implanted with an empty capsule. […] Animals were tested 24 hours after removal of the implant.
# Following isolation of total RNA from hippocampus, reverse transcription (SuperScript II, Rnase RT, GibcoBRL) yielded complementary DNA (cDNA) which was amplified with PCR methods (65) using oligonucleotide primers for the δ subunit (398 bp)(70) and GAPDH (657 bp, Operon). Twenty three to thirty amplification cycles were used for two different concentrations of cDNA (25 or 50 ng) to detect band densities within a linear range (15). Following gel electrophoresis (FMC Bioproducts), the density of DNA bands stained with ethidium bromide was quantified and normalized to the GAPDH control.
# GABAR α4 subunit = experiment: Western blot of α4 subunit in hippocampus after steroid and ethanol administration; settings: steroid withdrawal after 21 days progesterone
# Method: Animals were administered steroids using one of two protocols: (i) For the 48 hour steroid administration protocol, animals were injected with 10 mg/kg 3α, 5β THP in oil, i.p., on a daily basis for three days and sacrificed 1-2 hour following the final injection. Controls were injected with oil vehicle. […] At this time, the capsule was removed and the animals were injected with 17 β estradiol (2 μgs/animal) in order to reset their cycle. Animals were sacrificed 24 hours later. […] In all cases, implantation and removal of capsules were performed under halothane anesthesia. […] Therefore, this study employed the 5β isomer of the steroid.
# In some groups of animals, either ethanol (0.5 g/kg in saline) or saline vehicle was administered i.p. (3×, every 40 minutes) for the final 2 hours of the respective steroid administration or withdrawal paradigm. The use of multiple injections of low doses of ethanol would approximate ethanol consumption in the human more closely than would a single injection. For the 48 hour steroid administration paradigm, animals received their first ethanol injection immediately after the steroid injection, and subsequent injections at 40 minute intervals. In all cases, animals were sacrificed 40 minutes after the final ethanol injection (2 hours after the first ethanol injection and final steroid injection). All animal protocols were carried out with the approval of the Institutional Animal Care and Use Committee.
# Hippocampi removed from steroid or vehicle-treated animals were homogenized, and membranes prepared as previously described (65). Following electrophoresis on 8% SDS polyacrylamide gels, membranes were transferred to a nitrocellulose membrane (Bio-Rad, Hercules, Calif.). α4 subunit levels were detected by evaluating the band density at 67 kDa after probing with a polyclonal antibody (64). Membranes were incubated for 1-2 hours at room temperature with a 1:5000 dilution of horseradish peroxidase-conjugated donkey anti-rabbit IgG (Amersham, Arlington Heights, Ill.), and visualized with enhanced chemiluminescence with varying concentrations of protein in the linear range. Immunoreactive band densities were quantified using a CCD camera (UMAX Scanner) and one-Dscan software, which uses multiple Gaussian fits to achieve accurate band density profiles.
# [1] = system: δ and α4 GABAA receptor subunit proteins; experiment: Western blot of δ and α4 subunits in hippocampus after progesterone withdrawal
# Method: as §1
# Membranes prepared from hippocampal tissue were solubilized and electrophoresed on 9% SDS-polyacrylamide gels before transfer to a polyvinyldifluoride membrane, as described (65,69). Polyclonal antiserum against the δ subunit (Asr^318-Leu^400) was supplied by Dr. R. McKernan (Merck)(56) and is visualized as a 54 kDa band. Membranes were also probed with an antibody for the α4 GABAA receptor subunit (67 kDa) (64), developed according to a previously described protocol (38), and a commercial antibody for the control protein GAPDH (glyceraldehyde-3-phosphate dehydrogenase; 36 kDa). Membranes were incubated for 1-2 hours at room temperature with 1:10,000 (α4), 1:7,000 (δ) or 1:20,000 (GAPDH) dilution of antibody followed by addition of 1:5,000 horseradish-peroxidase-conjugated donkey anti-rabbit IgG (Amersham). Band densities were quantified using densitometry with One-Dscan software after normalization to the GAPDH control. Reagents were obtained from Sigma/Genosys.
smiles,measurement,setting,value
CC(=O)[C@H]1CC[C@H]2[C@@H]3CCC4=CC(=O)CC[C@]4(C)[C@H]3CC[C@]12C [progesterone],δ subunit mRNA in hippocampus,δ subunit mRNA,three-fold
same,increase of α4 expression,GABAR α4 subunit,threefold
same,expression of α4 subunit protein in hippocampus,[1],three-fold
same,expression of δ subunit protein in hippocampus,[1],three-fold
